US20090176864A1, “Methods For Improving Hepatic and Immune Function In An Animal” (Hill's Pet Nutrition, Inc., priority 2004, published 2009)

Legend:
Format in all cases: in vivo
[1] = Bodyweight of cats fed lipoic acid fortified food
Method: (§1) The study involved three groups of cats: Group 1) cats on a dry control food, Group 2) cats on a dry food fortified with approximately 65 ppm of lipoic acid, and Group 3) cats on a dry food fortified with approximately 650 ppm of lipoic acid on a dry matter basis. All cats were fled control food for a two week baseline period at the end of which time immune function assays were performed. One group of cats was then switched to the 65 ppm test food, one group to the 650 ppm test food and one group remained on control and all were fed for another 6 weeks at which time the baseline tests were performed again.

lymphocyte proliferation [2] = assay: Concanavalin A-activated lymphocyte proliferation; conditions: cats; for Concanavalin A-activated lymphocyte proliferation compared to baseline: 6 weeks
Method: as §1

lymphocyte proliferation [3] = assay: Phytohaemagglutinin (PHA)-activated lymphocyte proliferation; conditions: cats
Method: as §1

lymphocyte proliferation [4] = assay: Pokeweed mitogen-activated lymphocyte proliferation; conditions: cats
Method: as §1

lymphocyte proliferation [5] = assay: Lymphocyte proliferation activity in old cats (overall statement); conditions: lipoic acid in food
Method: as §1

[6] = 65 ppm lipoic acid in food, 6 weeks

## O=C(O)CCCC[C@@H]1CCSS1 (racemic) [lipoic acid]
[1]; 65 ppm lipoic acid in food for 6 weeks
  effects on bodyweight: no adverse effects
[1]; 650 ppm lipoic acid in food for 6 weeks
  effects on bodyweight: no adverse effects
Lymphocyte proliferation [2]; 65 ppm lipoic acid in food
  Concanavalin A-activated lymphocyte proliferation compared to baseline: significant increase
Lymphocyte proliferation [2]; 650 ppm lipoic acid in food
  Concanavalin A-activated lymphocyte proliferation compared to baseline: displayed an increase
Lymphocyte proliferation [2]; control vs 65 ppm vs 650 ppm, beginning and end of study
  Concanavalin A stimulation, difference between the groups: no significant difference
Lymphocyte proliferation [3]; [6]
  PHA-stimulated lymphocyte proliferation between baseline and 6 weeks: significant increase
Lymphocyte proliferation [3]; control vs 65 ppm vs 650 ppm, beginning or end
  PHA stimulation, difference between groups: no significant difference
Lymphocyte proliferation [4]; [6]
  Pokeweed mitogen-stimulated lymphocyte proliferation compared to baseline: significantly increased
Lymphocyte proliferation [4]; control vs 65 ppm vs 650 ppm, ANOVA, beginning and end of study
  Pokeweed Mitogen stimulation, difference between groups: different between groups (ANOVA P<0.05) at the beginning but not the end
Lymphocyte proliferation [5]
  lymphocyte proliferation activity: improved
